Results from article doi:10.1101/2020.10.25.354381v1, “Multi-dimensional digital bioassay platform based on an air-sealed femtoliter reactor array device” (biorxiv, 2020).

Legend:
[1] = tested on: T1, CiALP (calf intestinal ALP); assay: fluorogenic ALP assay, bulk microtiter plate, Hill fit; assay type: biochemical, Bos taurus; details: […] 4-MUP, […] DEA-HCl, […] MgCl2, […] ZnSO4, pH […] TWEEN20, […] °C; […] min preincubation
T1 construct: gene ALPI; homodimeric metalloenzyme

[2] = target: T2, EcALP (D101S, an active mutant of Escherichia coli ALP) (Escherichia coli, UniProt P00634, D123S); assay: as above; assay type: biochemical; details: […] 4-MUP, […] DEA-HCl, […] MgCl2, […] ZnSO4, pH […] TWEEN20, […] °C; […] min preincubation; diluted cell-free synthesis mixture
T2 construct: gene phoA; D101S mutant, cell-free synthesis (PURExpress with disulfide bond enhancer), not purified; homodimeric metalloenzyme
T2 sequence (P00634 22-471 D123S): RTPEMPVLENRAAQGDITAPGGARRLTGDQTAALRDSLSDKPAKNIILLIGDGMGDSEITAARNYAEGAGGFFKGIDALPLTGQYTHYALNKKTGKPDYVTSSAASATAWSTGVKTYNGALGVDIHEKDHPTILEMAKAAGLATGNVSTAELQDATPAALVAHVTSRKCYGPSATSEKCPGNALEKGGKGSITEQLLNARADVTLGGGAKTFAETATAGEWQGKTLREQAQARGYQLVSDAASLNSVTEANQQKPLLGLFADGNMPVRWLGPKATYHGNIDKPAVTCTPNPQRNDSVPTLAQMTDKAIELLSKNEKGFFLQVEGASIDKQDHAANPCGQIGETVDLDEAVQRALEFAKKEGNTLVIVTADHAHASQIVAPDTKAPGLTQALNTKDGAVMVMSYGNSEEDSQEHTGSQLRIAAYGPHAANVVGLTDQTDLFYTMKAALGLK

Structure (SMILES) | IC50 [1] | IC50 [2]
O=P(O)(O)O [Pi, phosphate] | 1600 µM | 
[O]=[V]([OH])([OH])[OH] [V, vanadate] | 200 µM | 7800 µM
